This is an account of results in US20250011404A1, “TARGETING APOE ENHANCES T-CELL KILLING IN CANCER IMMUNOTHERAPY” (Children's National Medical Center, priority 2021, published 2025).

“Also recorded” adds a separate entry of the source.

This experiment has as its system vaccinated splenocytes co-cultured with Myc inhibited B16 tumor cells. Briefly: IFNγ ELISA, vaccinated splenocytes co-cultured with immunogenic B16 cells. Format: cell-based, mouse. The conditions noted are these: vaccinated WT splenocytes + Myc-inhibited B16 cells, 48 hr, in presence of COG133, dose dependent. The protocol: To further investigate the influence of tumor secreted apoE on immune cell function, immunogenic B16 tumor cells (B16 cells treated with Myc inhibitors (0.25 μM BET+0.25 μM JQ1 for 4 days) were irradiated at 60 Gray and co-cultured with naïve C57/BL6 splenocytes in the presence of either apoE mimetic COG133 at 0.3, 3 and 9 μM or anti-APOE blocking antibody at 1, 10 and 30 μg/ml concentrations. Prior work has shown the immunogenic effect of treating cancer cells with Myc inhibitors and irradiation. IFNγ production was quantified by ELISA at 48 h. Splenocytes produced high levels of IFNγ when co-cultured with Myc-inhibited immunogenic B16 cells as shown in FIGS. 3A-3C. Exposure of these cells to apoE mimetic COG133 repressed IFNγ production (6-fold reduction) (FIG. 3A), while the presence of Anti-APOE antibody enhanced IFNγ production (3-fold increase) (FIG. 3B). We also tested IFNγ production from vaccinated splenocytes following co-culture with treated and untreated B16 cells in the presence of COG 133. […] In addition to IFNγ, we also quantified other cytokine/chemokines using ProcartaPlex multiplex immunoassay. […] In addition, using ProcartaPlex multiplex immunoassay, we also quantified other cytokines/chemokines produced in the reaction. […] Readings were measured at 450 nm using the EnSpire 2300 Multilabel plate reader (Perkin Elmer, Waltham, Massachusetts, US).
(In an ELISA, binding on a coated surface is turned into a signal by an enzyme label.)

In the case of “COG133: a fragment of apoE peptide, which competes with the apoE holoprotein for binding the LDL receptors and acts as an apoE mimetic”, the “IFNγ production from vaccinated splenocytes” value was “inhibited; also recorded: inhibitory; also recorded: significantly suppressed”. Further, for the setting “listed as COG 133”, the “IFNγ production from vaccinated splenocytes” value is given as “suppressed”.
